# Laboratory results: patent US20050090428A1, “Porphyrins with virucidal activity” (priority 2002, published 2005)
# Legend:
# HIV-1 IIIB = test: Screening for virucidal activity against HIV-1 IIIB, MAGI cell assay; conditions: for inhibition of HIV-1 IIIB (percent virus inactivated), screening assay: 50 μg/ml, 1 hr in the dark, diluted 10-fold, MAGI cells, without removal of free compound; for activity against HIV in words: MAGI screening assay, HIV-1 IIIB
# HSV-1(F) or HSV-2(G) = test: In vitro HSV inactivation, plaque assay on Vero cells; type: cell-based, herpes simplex virus; conditions: room temperature, in the dark, up to 60 minutes
# Procedure: Either HSV-1(F) or HSV-2(G) (10^7 pfu) was mixed with 1 ml of porphyrin at the concentration indicated in Dulbecco's modified Eagle's medium (DME) with 1% newborn calf serum. All assays were performed in duplicate. All tubes were wrapped in foil to keep out light, and ambient room light was reduced as much as was practicable. Virus and porphyrin were incubated together at room temperature for times up to 60 minutes (Table 2). Following incubation, 10 fold serial dilutions were performed in DME with 1% newborn serum, using tubes wrapped in foil. Virus was diluted 20,000 fold and plated on Vero cells. Following a 2 hour incubation with the cells, the inoculum was removed and cells were overlaid with DME with 1% newborn calf serum and 0.2% human gamma globulin. Cells were fixed and stained, and plaques counted, 2 days after infection.
# [1] = molecular target: T1, HIV-1 Env protein (HXB2 Env) (Human immunodeficiency virus type 1 group M subtype B, UniProt P04578); type: cell-based
# T1 construct: expressed in transfected cells; host or cells: 293T cells transfected with pIIIenv3-1 plus pCMVTAT; cocultured with 3T3 cells expressing CD4 and CXCR4
# 89.6 Env = 89.6 Env (Human immunodeficiency virus type 1 group M subtype B, UniProt Q73372); type: cell-based, HIV-1
# Sequence of 89.6 Env (Q73372 32-719 limits assumed): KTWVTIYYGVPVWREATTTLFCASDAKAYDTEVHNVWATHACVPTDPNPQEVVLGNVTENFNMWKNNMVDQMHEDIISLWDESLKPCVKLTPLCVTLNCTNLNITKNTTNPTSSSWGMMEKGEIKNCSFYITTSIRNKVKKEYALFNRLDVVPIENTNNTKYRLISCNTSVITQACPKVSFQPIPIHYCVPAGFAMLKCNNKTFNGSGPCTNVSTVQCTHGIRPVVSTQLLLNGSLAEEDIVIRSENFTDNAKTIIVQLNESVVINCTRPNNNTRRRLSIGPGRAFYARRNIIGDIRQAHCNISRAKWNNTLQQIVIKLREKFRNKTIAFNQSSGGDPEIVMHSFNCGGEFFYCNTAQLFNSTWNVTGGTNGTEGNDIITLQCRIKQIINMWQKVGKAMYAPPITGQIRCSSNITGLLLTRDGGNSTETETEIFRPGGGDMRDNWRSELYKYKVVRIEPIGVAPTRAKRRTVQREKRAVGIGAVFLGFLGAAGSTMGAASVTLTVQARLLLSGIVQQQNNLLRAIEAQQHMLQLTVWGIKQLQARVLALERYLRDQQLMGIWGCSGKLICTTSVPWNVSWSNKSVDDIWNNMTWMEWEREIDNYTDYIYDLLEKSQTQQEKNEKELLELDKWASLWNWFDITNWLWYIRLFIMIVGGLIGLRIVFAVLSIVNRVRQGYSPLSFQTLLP
# Sequence of 89.6 Env (Q73372 509-719 partner limits assumed): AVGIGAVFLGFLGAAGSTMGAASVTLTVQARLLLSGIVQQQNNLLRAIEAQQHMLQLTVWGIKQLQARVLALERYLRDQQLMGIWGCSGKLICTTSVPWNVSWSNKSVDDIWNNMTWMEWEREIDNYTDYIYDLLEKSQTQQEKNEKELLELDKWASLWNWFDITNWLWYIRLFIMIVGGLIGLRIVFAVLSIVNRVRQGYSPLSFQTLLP
# [2] = molecular target: T2, binding of HIV-1 IIIB gp120 to CD4 (Human immunodeficiency virus type 1 group M subtype B, UniProt P04578); test: gp120-CD4 binding assay (ELISA); conditions: 1 hr at room temperature
# T2 construct: The recombinant IIB gp120 protein (baculovirus-expressed) was obtained from Intracel; purchased Intracel (Cambridge, Mass.) for gp120; host or cells: baculovirus-expressed (gp120)
# Procedure: To investigate the possible effect of porphyrin compounds on binding of HIV-1 IIIB gp120 to CD4, a gp120 CD4 binding assay was developed. The assay was developed as a modification of a capture gp120 ELISA kit (Intracel Corporation). Briefly, a 96-well plate was coated with soluble CD4 and 0.5 μg of HIV-1 IIIB gp120 per well was incubated in the presence or absence of test compounds for 1 hr at room temperature. After four washes with buffer to remove unbound proteins, the bound gp120 was detected by anti-gp120 peroxidase-conjugated antibodies and quantitated by the protocol provided by the manufacturer.
# IIIB Env of HIV 1 = IIIB Env of HIV 1 (Human immunodeficiency virus type 1 group M subtype B, UniProt P03375); type: cell-based
Molecule,"inhibition of HIV-1 IIIB (percent virus inactivated), screening assay (HIV-1 IIIB)",inactivating HSVs (HSV-1(F) or HSV-2(G)),"Presence of nuclei in syncytia, pIIIenv X4, 6 h [1]","Presence of nuclei in syncytia, VV89.6 envt X4, 23 h (89.6 Env)",further results
"Cc1cc(C)c(S(=O)(=O)O)c(C)c1-c1c2nc(c(-c3c(C)cc(C)c(S(=O)(=O)O)c3C)c3ccc([n-]3)c(-c3c(C)cc(C)c(S(=O)(=O)O)c3C)c3nc(c(-c4c(C)cc(C)c(S(=O)(=O)O)c4C)c4ccc1[n-]4)C=C3)C=C2.[Co+2] [TMPS,Co]",about 80%,active,,,
O=C(O)c1ccc(-c2c3nc(c(-c4ccc(C(=O)O)cc4)c4ccc([nH]4)c(-c4ccc(C(=O)O)cc4)c4nc(c(-c5ccc(C(=O)O)cc5)c5ccc2[nH]5)C=C4)C=C3)cc1 [TPPC4],,active,,,
"O=S(=O)(O)c1ccc(-c2c3nc(c(-c4ccc(S(=O)(=O)O)cc4)c4ccc([nH]4)c(-c4ccc(S(=O)(=O)O)cc4)c4nc(c(-c5ccccc5)c5ccc2[nH]5)C=C4)C=C3)cc1.[Cu] [TPPS3,Cu]",,active,,,
"O=S(=O)(O)c1ccc(-c2c3nc(c(-c4ccc(S(=O)(=O)O)cc4)c4ccc([nH]4)c(-c4ccc(S(=O)(=O)O)cc4)c4nc(c(-c5ccccc5)c5ccc2[nH]5)C=C4)C=C3)cc1.[Zn] [TPPS3,Zn]",,active,,,
"O=S(=O)(O)c1ccc(-c2c3nc(c(-c4ccc(S(=O)(=O)O)cc4)c4ccc([nH]4)c(-c4ccc(S(=O)(=O)O)cc4)c4nc(c(-c5ccc(S(=O)(=O)O)cc5)c5ccc2[nH]5)C=C4)C=C3)cc1 [TPPS4, mesotetra(4-sulfonatophenyl)porphine]",93%,,−,−/4+ (key: 4+: more than 50% of nuclei are in syncytia; 3+: 30 to 50% of nuclei are in syncytia; 2+: 30 to 10% of nuclei are in syncytia; +: less than 10% of nuclei are in syncytia; −: no syncytia were observed),"Presence of nuclei in syncytia, VV89.6 envt R5, 23 h (89.6 Env): 1+/4+ (key: 4+: more than 50% of nuclei are in syncytia; 3+: 30 to 50% of nuclei are in syncytia; 2+: 30 to 10% of nuclei are in syncytia; +: less than 10% of nuclei are in syncytia; −: no syncytia were observed); Presence of nuclei in syncytia, VV89.6 envt X4, 6 h (89.6 Env): −/4+"
"O=S(=O)(O)c1ccc(C2=C3C=CC(=N3)[C-](c3ccc(S(=O)(=O)O)cc3)C3=NC(=C(c4ccc(S(=O)(=O)O)cc4)c4[cH-]cc(n4)C(c4ccc(S(=O)(=O)O)cc4)=C4C=CC2=N4)C=C3)cc1.[Cu+2] (stereo not shown) [TPPS4,Cu]",97%,active,−,,activity against HIV in words (HIV-1 IIIB): intermediate levels of activity; inhibition of gp120/CD4 binding [2]: 80-100%; inhibition of HIV-induced cell fusion in words (IIIB Env of HIV 1): Complete inhibition
"O=S(=O)(O)c1ccc(-c2c3nc(c(-c4ccc(S(=O)(=O)O)cc4)c4ccc([n-]4)c(-c4ccc(S(=O)(=O)O)cc4)c4ccc([n-]4)c(-c4ccc(S(=O)(=O)O)cc4)c4nc2C=C4)C=C3)cc1.[Ni+2] [TPPS4,Ni]",,,,−/3+ (key: 4+: more than 50% of nuclei are in syncytia; 3+: 30 to 50% of nuclei are in syncytia; 2+: 30 to 10% of nuclei are in syncytia; +: less than 10% of nuclei are in syncytia; −: no syncytia were observed),"Presence of nuclei in syncytia, VV89.6 envt R5, 6 h (89.6 Env): −/1+; Presence of nuclei in syncytia, VV89.6 envt X4, 6 h (89.6 Env): −/3+"
"O=S(=O)(O)c1ccc(-c2c3nc(c(-c4ccc(S(=O)(=O)O)cc4)c4ccc([n-]4)c(-c4ccc(S(=O)(=O)O)cc4)c4nc(c(-c5ccc(S(=O)(=O)O)cc5)c5ccc2[n-]5)C=C4)C=C3)cc1.[Pd+2] [TPPS4,Pd]",,,−,−/4+ (key: 4+: more than 50% of nuclei are in syncytia; 3+: 30 to 50% of nuclei are in syncytia; 2+: 30 to 10% of nuclei are in syncytia; +: less than 10% of nuclei are in syncytia; −: no syncytia were observed),"Presence of nuclei in syncytia, VV89.6 envt R5, 6 h (89.6 Env): −/4+; Presence of nuclei in syncytia, VV89.6 envt R5, 23 h (89.6 Env): −/4+ (key: 4+: more than 50% of nuclei are in syncytia; 3+: 30 to 50% of nuclei are in syncytia; 2+: 30 to 10% of nuclei are in syncytia; +: less than 10% of nuclei are in syncytia; −: no syncytia were observed); Presence of nuclei in syncytia, VV89.6 envt X4, 6 h (89.6 Env): −/4+"
"O=S(=O)(O)c1ccc(-c2c3nc(c(-c4ccc(S(=O)(=O)O)cc4)c4ccc([nH]4)c(-c4ccc(S(=O)(=O)O)cc4)c4nc(c(-c5ccc(S(=O)(=O)O)cc5)c5ccc2[nH]5)C=C4)C=C3)cc1.[Zn] [TPPS4,Zn]",,active,,,
"O=S(=O)(O)c1ccc(Cl)c(-c2c3nc(c(-c4c(Cl)ccc(S(=O)(=O)O)c4Cl)c4ccc([nH]4)c(-c4c(Cl)ccc(S(=O)(=O)O)c4Cl)c4nc(c(-c5c(Cl)ccc(S(=O)(=O)O)c5Cl)c5ccc2[nH]5)C=C4)C=C3)c1Cl [tetrakis(2,6dichlorosulfonatonatophenyl)porphyrin]",,active,,,
"sulfonated 2,6-difluoroTPP [TPP(2,6-F2)S]",,active,−,1+/4+ (key: 4+: more than 50% of nuclei are in syncytia; 3+: 30 to 50% of nuclei are in syncytia; 2+: 30 to 10% of nuclei are in syncytia; +: less than 10% of nuclei are in syncytia; −: no syncytia were observed),"activity against HIV in words (HIV-1 IIIB): most active; Presence of nuclei in syncytia, VV89.6 envt R5, 23 h (89.6 Env): 1+/4+ (key: 4+: more than 50% of nuclei are in syncytia; 3+: 30 to 50% of nuclei are in syncytia; 2+: 30 to 10% of nuclei are in syncytia; +: less than 10% of nuclei are in syncytia; −: no syncytia were observed); inhibition of gp120/CD4 binding in words [2]: completely inhibit binding"
sulfonated 2-fluoroTPP [TPP2FS],about 80%,active,−,1+/4+ (key: 4+: more than 50% of nuclei are in syncytia; 3+: 30 to 50% of nuclei are in syncytia; 2+: 30 to 10% of nuclei are in syncytia; +: less than 10% of nuclei are in syncytia; −: no syncytia were observed),"Presence of nuclei in syncytia, VV89.6 envt R5, 6 h (89.6 Env): 4+/4+ (key: 4+: more than 50% of nuclei are in syncytia; 3+: 30 to 50% of nuclei are in syncytia; 2+: 30 to 10% of nuclei are in syncytia; +: less than 10% of nuclei are in syncytia; −: no syncytia were observed); Presence of nuclei in syncytia, VV89.6 envt R5, 23 h (89.6 Env): 4+/4+ (key: 4+: more than 50% of nuclei are in syncytia; 3+: 30 to 50% of nuclei are in syncytia; 2+: 30 to 10% of nuclei are in syncytia; +: less than 10% of nuclei are in syncytia; −: no syncytia were observed); inhibition of gp120/CD4 binding [2]: 81%; Presence of nuclei in syncytia, VVenvl X4, 6 h (IIIB Env of HIV 1): −/4+; Presence of nuclei in syncytia, VVenvl X4, 23 h (IIIB Env of HIV 1): −/4+ (key: 4+: more than 50% of nuclei are in syncytia; 3+: 30 to 50% of nuclei are in syncytia; 2+: 30 to 10% of nuclei are in syncytia; +: less than 10% of nuclei are in syncytia; −: no syncytia were observed)"
sulfonated 4-chloroTPP [TPP4ClS],about 97%,,,,activity against HIV in words (HIV-1 IIIB): most active; inhibition of gp120/CD4 binding [2]: 85%
tetrakis(2-chlorosulfonatophenyl)porphyrin,,active,,,
"tetrakis(2-fluorosulfonatonatophenyl)porphyrin,Cu",,active,,,
